Assay results published in patent publication US9630922B2, “3-spiro-7-hydroxamic acid tetralins as HDAC inhibitors” (Forma Therapeutics, Inc., priority 2015, dated 2017).

Biological target: T1, HDAC6 (Homo sapiens, UniProt Q9UBN7)
T1 construct: Full length human recombinant HDAC6 protein was expressed in baculoviral system; made in house; host or cells: baculoviral system
T1 sequence (Q9UBN7 1-1215): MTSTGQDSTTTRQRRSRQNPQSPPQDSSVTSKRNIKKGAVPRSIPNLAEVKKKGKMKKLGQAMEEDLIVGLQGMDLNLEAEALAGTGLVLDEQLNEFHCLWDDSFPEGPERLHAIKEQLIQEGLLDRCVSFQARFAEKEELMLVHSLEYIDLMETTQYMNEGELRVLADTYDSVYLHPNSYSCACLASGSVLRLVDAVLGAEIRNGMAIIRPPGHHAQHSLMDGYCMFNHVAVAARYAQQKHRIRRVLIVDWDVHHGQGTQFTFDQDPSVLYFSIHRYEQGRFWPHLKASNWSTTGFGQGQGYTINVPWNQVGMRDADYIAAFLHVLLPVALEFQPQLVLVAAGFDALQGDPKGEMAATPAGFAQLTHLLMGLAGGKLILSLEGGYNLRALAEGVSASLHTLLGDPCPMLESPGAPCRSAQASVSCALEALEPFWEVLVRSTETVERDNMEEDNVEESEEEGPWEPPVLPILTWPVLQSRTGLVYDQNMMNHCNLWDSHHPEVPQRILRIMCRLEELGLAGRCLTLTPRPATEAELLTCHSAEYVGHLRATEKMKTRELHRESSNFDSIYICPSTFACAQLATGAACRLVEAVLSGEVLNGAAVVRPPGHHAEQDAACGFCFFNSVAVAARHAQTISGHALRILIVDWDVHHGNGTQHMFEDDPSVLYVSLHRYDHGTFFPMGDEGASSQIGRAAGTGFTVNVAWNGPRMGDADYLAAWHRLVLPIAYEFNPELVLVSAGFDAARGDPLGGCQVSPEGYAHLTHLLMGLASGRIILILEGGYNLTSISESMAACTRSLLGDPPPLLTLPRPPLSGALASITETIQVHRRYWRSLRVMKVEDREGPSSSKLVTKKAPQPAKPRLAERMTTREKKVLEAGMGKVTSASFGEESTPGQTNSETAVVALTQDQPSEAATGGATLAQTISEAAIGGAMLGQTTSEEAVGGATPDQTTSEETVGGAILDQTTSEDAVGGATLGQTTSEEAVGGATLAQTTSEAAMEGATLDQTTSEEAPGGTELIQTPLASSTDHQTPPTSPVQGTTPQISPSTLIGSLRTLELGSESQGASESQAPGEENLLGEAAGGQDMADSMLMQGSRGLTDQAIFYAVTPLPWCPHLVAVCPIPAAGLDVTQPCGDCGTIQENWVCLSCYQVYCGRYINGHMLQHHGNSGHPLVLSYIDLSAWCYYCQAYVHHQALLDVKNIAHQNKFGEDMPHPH
Test: In vitro Histone Deacetylase Assay (enzymatic HDAC6 electrophoretic mobility shift assay)
Assay type: biochemical
Settings: full length human recombinant HDAC6, 1 nM enzyme, 2 μM peptide substrate RHKK(Ac)-NH2, 25° C.; read-out: HDAC6 activity range
Method: The enzymatic HDAC6 assay was performed using electrophoretic mobility shift assay. Full length human recombinant HDAC6 protein was expressed in baculoviral system and purified by affinity chromatography. The enzymatic reactions were assembled in 384 well plates in a total volume of 25 μL in a reaction buffer composing: 100 mM HEPES, pH7.5, 25 mM KCl, 0.1% bovine serum albumin, 0.01% Triton X-100, 1% DMSO (from compounds) 2 μM of the fluorescently labeled peptide substrate and enzyme. The enzyme was added at a final concentration of 1 nM. The peptide substrate RHKK(Ac)—NH2 was used. The compounds were tested at 12 concentrations spaced by 3× dilution intervals. Negative control samples (0%-inhibition in the absence of inhibitor) and positive control samples (100%-inhibition) were assembled in replicates of four in each assay plate. The reactions were incubated at 25° C. and quenched by the addition of 45 μL of termination buffer (100 mM HEPES, pH 7.5, 0.01% Triton X-100, 0.05% SDS).
The terminated assay plates were analyzed on LabChip® 3000 microfluidic electrophoresis instrument (Perkin Elmer/Caliper Life Sciences). The fluorescence intensity of the electrophoretically separated de-acetylated product and substrate peptide was measured. Activity in each sample was determined as the product to sum ratio (PSR): P/(S+P), where P is the peak height of the product peptide and S is the peak height of the substrate peptide. Percent inhibition (Pinh) is determined using the following equation:
Pinh=(PSR0%−PSRinh)/(PSR0%−PSR100%)*100, where PSRinh is the product sum ratio in the presence of inhibitor, PSR0% is the average product sum ration in the absence of inhibitor and PSR100% is the average product sum ratio in 100%-inhibition control samples. The IC50 values of inhibitors were determined by fitting the %-inhibition curves with 4 parameter dose-response model using XLfit 4 software.
As set forth in Table-31, below, IC50 values are defined as follows: IC50≦0.1 μM (+++); IC50>0.1 μM and ≦0.5 μM (++); IC50>0.5 μM (+).

Structure (SMILES) | IC50
O=C(NO)c1ccc2c(c1)CCC1(CCCN(Cc3ccccc3)C1=O)C2 (stereo not shown) [Compound I-176, 1′-benzyl-N-hydroxy-2′-oxo-3,4-dihydro-1H-spiro[naphthalene-2,3′-piperidine]-6-carboxamide] | ≤ 100 nM
O=C(NO)c1ccc2c(c1)CC[C@@]1(CCN(c3ccc(F)cc3)C1=O)C2 [Compound I-154, (S)-1′-(4-fluorophenyl)-N-hydroxy-2′-oxo-3,4-dihydro-1H-spiro[naphthalene-2,3′-pyrrolidine]-6-carboxamide] | ≤ 100 nM
O=C(NO)c1ccc2c(c1)CCC1(CC(=O)N(CC3COC3)C1)C2 (single isomer, unassigned) [Compound I-217] | 100 to 500 nM
CC(C)CN1CC2(CCc3cc(C(=O)NO)ccc3C2)CC1=O (single isomer, unassigned) [Compound I-207] | ≤ 100 nM
CC(C)N1CC2(CCc3cc(C(=O)NO)ccc3C2)CC1=O (single isomer, unassigned) [Compound I-213] | ≤ 100 nM
CC(C)n1c(CN2CC[C@@]3(CCc4cc(C(=O)NO)ccc4C3)C2=O)nc2ccccc21 [Compound I-73, (S)-N-hydroxy-1′-((1-isopropyl-1H-benzo[d]imidazol-2-yl)methyl)-2′-oxo-3,4-dihydro-1H-spiro[naphthalene-2,3′-pyrrolidine]-6-carboxamide] | ≤ 100 nM
O=C(NO)c1ccc2c(c1)CCC1(CC(=O)N(CC3CCC3)C1)C2 (single isomer, unassigned) [Compound I-210] | ≤ 100 nM
O=C(NO)c1ccc2c(c1)CCC1(CCN(c3cccnc3)C1=O)O2 (stereo not shown) [Compound I-233, N-hydroxy-2′-oxo-1′-(pyridin-3-yl)spiro[chromane-2,3′-pyrrolidine]-6-carboxamide] | 100 to 500 nM
O=C(NO)c1ccc2c(c1)CC[C@@]1(CCN(c3ccccc3F)C1=O)C2 [Compound I-157, (S)-1′-(2-fluorophenyl)-N-hydroxy-2′-oxo-3,4-dihydro-1H-spiro[naphthalene-2,3′-pyrrolidine]-6-carboxamide] | ≤ 100 nM
COCCn1c(CN2CC[C@]3(CCc4cc(C(=O)NO)ccc4C3)C2=O)nc2ccccc21 [Compound I-22, (R)-N-hydroxy-1′-((1-(2-methoxyethyl)-1H-benzo[d]imidazol-2-yl)methyl)-2′-oxo-3,4-dihydro-1H-spiro[naphthalene-2,3′-pyrrolidine]-6-carboxamide] | ≤ 100 nM
COc1ncccc1N1CC[C@]2(CCc3cc(C(=O)NO)ccc3C2)C1=O [Compound I-145, (R)-N-hydroxy-1′-(2-methoxypyridin-3-yl)-2′-oxo-3,4-dihydro-1H-spiro[naphthalene-2,3′-pyrrolidine]-6-carboxamide] | ≤ 100 nM
N#Cc1ccccc1N1CC[C@@]2(CCc3cc(C(=O)NO)ccc3C2)C1=O [Compound I-174, (S)-1′-(2-cyanophenyl)-N-hydroxy-2′-oxo-3,4-dihydro-1H-spiro[naphthalene-2,3′-pyrrolidine]-6-carboxamide] | ≤ 100 nM
O=C(NO)c1ccc2c(c1)CCC1(CCN(CC3CCOCC3)C1=O)O2 (stereo not shown) [Compound I-234, N-hydroxy-2′-oxo-1′-((tetrahydro-2H-pyran-4-yl)methyl)spiro[chromane-2,3′-pyrrolidine]-6-carboxamide] | > 500 nM
O=C(NO)c1ccc2c(c1)CCC1(CCN(Cc3ccncc3)C1=O)O2 (stereo not shown) [Compound I-230, N-hydroxy-2′-oxo-1′-(pyridin-4-ylmethyl)spiro[chromane-2,3′-pyrrolidine]-6-carboxamide] | > 500 nM
COc1ccc(CN2CCC3(CCc4cc(C(=O)NO)ccc4C3)C2)cc1 (stereo not shown) [Compound I-3, N-hydroxy-1′-(4-methoxybenzyl)-3,4-dihydro-1H-spiro[naphthalene-2,3′-pyrrolidine]-6-carboxamide] | 100 to 500 nM
COc1ccccc1N1CC[C@]2(CCc3cc(C(=O)NO)ccc3C2)C1=O [Compound I-111] | ≤ 100 nM

Second part, the compound after the results:

IC50 | Structure (SMILES)
≤ 100 nM | O=C(NO)c1ccc2c(c1)CC[C@@]1(CCN(Cc3ccccc3F)C1=O)C2 [Compound I-84, (S)-1′-(2-fluorobenzyl)-N-hydroxy-2′-oxo-3,4-dihydro-1H-spiro[naphthalene-2,3′-pyrrolidine]-6-carboxamide]
> 500 nM | O=C(NO)c1ccc2c(c1)CC[C@]1(CCN(Cc3ccncc3)C1=O)C2 [Compound I-14, (R)-N-hydroxy-2′-oxo-1′-(pyridin-4-ylmethyl)-3,4-dihydro-1H-spiro[naphthalene-2,3′-pyrrolidine]-6-carboxamide]
≤ 100 nM | O=C(NO)c1ccc2c(c1)CC[C@@]1(CCN(Cc3ccccn3)C1=O)C2 [Compound I-78, (S)-N-hydroxy-2′-oxo-1′-(pyridin-2-ylmethyl)-3,4-dihydro-1H-spiro[naphthalene-2,3′-pyrrolidine]-6-carboxamide]
≤ 100 nM | CCN1CC[C@]2(CCc3cc(C(=O)NO)ccc3C2)C1=O [Compound I-161, (R)-1′-ethyl-N-hydroxy-2′-oxo-3,4-dihydro-1H-spiro[naphthalene-2,3′-pyrrolidine]-6-carboxamide]
≤ 100 nM | O=C(NO)c1ccc2c(c1)CC[C@]1(CCCN(C3CCC3)C1=O)C2 (single isomer, unassigned) [Compound I-198]
100 to 500 nM | O=C(NO)c1ccc2c(c1)CC[C@@]1(CCN(Cc3c(Cl)cccc3Cl)C1=O)C2 [Compound I-75, (S)-1′-(2,6-dichlorobenzyl)-N-hydroxy-2′-oxo-3,4-dihydro-1H-spiro[naphthalene-2,3′-pyrrolidine]-6-carboxamide]
≤ 100 nM | O=C(NO)c1ccc2c(c1)CC[C@]1(CCN(Cc3cnc(Cl)s3)C1=O)C2 [Compound I-30, (R)-1′-((2-chlorothiazol-5-yl)methyl)-N-hydroxy-2′-oxo-3,4-dihydro-1H-spiro[naphthalene-2,3′-pyrrolidine]-6-carboxamide]
≤ 100 nM | O=C(NO)c1ccc2c(c1)CCC1(CCCN(CC3COC3)C1=O)C2 (single isomer, unassigned) [Compound I-195]
≤ 100 nM | CCN1CCCC2(CCc3cc(C(=O)NO)ccc3C2)C1=O (single isomer, unassigned) [Compound I-194]
≤ 100 nM | O=C(NO)c1ccc2c(c1)CC[C@]1(CCN(Cc3ccccc3F)C1=O)C2 [Compound I-57, (R)-1′-(2-fluorobenzyl)-N-hydroxy-2′-oxo-3,4-dihydro-1H-spiro[naphthalene-2,3′-pyrrolidine]-6-carboxamide]
≤ 100 nM | CS(=O)(=O)c1ccc(CN2CC[C@]3(CCc4cc(C(=O)NO)ccc4C3)C2=O)cc1 [Compound I-88, (R)-N-hydroxy-1′-(4-(methylsulfonyl)benzyl)-2′-oxo-3,4-dihydro-1H-spiro[naphthalene-2,3′-pyrrolidine]-6-carboxamide]
≤ 100 nM | O=C(NO)c1ccc2c(c1)CC[C@]1(CCN(c3ccccn3)C1=O)C2 [Compound I-20, (R)-N-hydroxy-2′-oxo-1′-(pyridin-2-yl)-3,4-dihydro-1H-spiro[naphthalene-2,3′-pyrrolidine]-6-carboxamide]
